Test results reported in patent US10919911B2, “Tricyclic ASK1 inhibitors” (Terns, Inc., priority 2018, dated 2021).

Target: ASK1 kinase (Homo sapiens (Human), UniProt Q99683)
Assay: RBC Kinase Assay (33P-ATP radiometric, myelin basic protein substrate)
Format: biochemical
Conditions: 20 ng ASK1 kinase, MBP substrate, 120 min at room temperature, 1% DMSO
Method: Example B1. RBC Kinase Assay Protocol
Base Reaction buffer: 20 mM Hepes (pH 7.5), 10 mM MgCl2, 1 mM EGTA, 0.02% Brij35, 0.02 mg/ml BSA, 0.1 mM Na3VO4, 2 mM DTT, and 1% DMSO were used for the assay.
Myelin base protein (MPB) was prepared in freshly prepared Base Reaction Buffer. 20 ng of ASK1 kinase was delivered into the substrate solution and gently mixed. Compounds in DMSO were delivered into the kinase reaction mixture (final DMSO concentration 1%). Commercially available 33P-ATP was delivered into the reaction mixture to initiate the reaction. The kinase reaction was incubated for 120 min. at room temperature. Reactions were spotted onto P81 ion exchange paper (Whatman #3698-915). Filters were washed extensively in 0.75% Phosphoric acid. Radioactivity on filters was read, and IC50 values were determined.

Chain of ASK1 kinase (Q99683 whole entry): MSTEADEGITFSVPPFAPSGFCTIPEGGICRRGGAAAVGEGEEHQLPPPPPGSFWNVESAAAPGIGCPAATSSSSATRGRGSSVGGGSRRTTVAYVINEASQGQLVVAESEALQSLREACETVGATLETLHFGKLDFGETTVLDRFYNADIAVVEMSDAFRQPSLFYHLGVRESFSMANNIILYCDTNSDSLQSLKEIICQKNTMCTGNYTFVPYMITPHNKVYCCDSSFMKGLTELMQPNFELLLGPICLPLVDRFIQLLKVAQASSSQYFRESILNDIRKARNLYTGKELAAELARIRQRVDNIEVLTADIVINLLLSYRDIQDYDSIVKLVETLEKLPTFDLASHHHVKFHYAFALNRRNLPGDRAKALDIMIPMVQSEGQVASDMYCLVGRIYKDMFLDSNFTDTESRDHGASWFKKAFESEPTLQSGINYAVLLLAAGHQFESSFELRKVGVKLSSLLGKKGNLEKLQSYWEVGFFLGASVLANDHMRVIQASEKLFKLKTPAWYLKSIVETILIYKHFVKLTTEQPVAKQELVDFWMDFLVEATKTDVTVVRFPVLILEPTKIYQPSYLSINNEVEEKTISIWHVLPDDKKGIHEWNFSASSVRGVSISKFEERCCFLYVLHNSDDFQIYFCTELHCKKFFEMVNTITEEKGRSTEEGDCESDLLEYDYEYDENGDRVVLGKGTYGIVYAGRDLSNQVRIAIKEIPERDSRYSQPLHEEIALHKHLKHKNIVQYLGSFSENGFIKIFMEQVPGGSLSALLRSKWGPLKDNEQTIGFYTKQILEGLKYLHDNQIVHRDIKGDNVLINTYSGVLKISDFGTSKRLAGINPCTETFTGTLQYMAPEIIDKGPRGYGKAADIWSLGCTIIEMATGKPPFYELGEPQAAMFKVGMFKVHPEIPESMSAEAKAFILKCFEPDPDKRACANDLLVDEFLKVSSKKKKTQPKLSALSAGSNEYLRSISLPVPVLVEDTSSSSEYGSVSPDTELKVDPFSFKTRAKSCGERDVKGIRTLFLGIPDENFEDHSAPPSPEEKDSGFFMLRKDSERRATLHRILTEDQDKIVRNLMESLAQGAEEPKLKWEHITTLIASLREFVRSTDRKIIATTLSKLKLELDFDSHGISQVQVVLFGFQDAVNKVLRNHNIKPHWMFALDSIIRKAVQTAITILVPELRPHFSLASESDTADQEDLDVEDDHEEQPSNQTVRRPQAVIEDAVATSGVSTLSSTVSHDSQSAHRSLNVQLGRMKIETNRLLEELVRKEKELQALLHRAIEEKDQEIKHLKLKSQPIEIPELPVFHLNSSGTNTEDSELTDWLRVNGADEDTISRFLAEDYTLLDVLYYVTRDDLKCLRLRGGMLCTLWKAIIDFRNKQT

`O=C(Nc1cccc2c1OC[C@@H](CF)n1cnnc1-2)c1cc(-n2cnc(C3CC3)c2)ccn1` [Example 29, (S)-4-(4-cyclopropyl-1H-imidazol-1-yl)-N-(5-(fluoromethyl)-5,6-dihydrobenzo[f][1,2,4]triazolo[4,3-d][1,4]oxazepin-8-yl)picolinamide] and `O=C(Nc1cccc2c1OC[C@H](CF)n1cnnc1-2)c1cc(-n2cnc(C3CC3)c2)ccn1` [Example 33, (R)-4-(4-cyclopropyl-1H-imidazol-1-yl)-N-(5-(fluoromethyl)-5,6-dihydrobenzo[f][1,2,4]triazolo[4,3-d][1,4]oxazepin-8-yl)picolinamide] are the same in IC50: 4.1 nM for the first, 4.1 nM for the second.

`Cc1cc(F)c(C(=O)Nc2cccc3c2OC[C@@H](CF)n2nnnc2-3)cc1-n1cnc(C2CC2)c1` [Example 30, (S)-5-(4-cyclopropyl-1H-imidazol-1-yl)-2-fluoro-N-(5-(fluoromethyl)-5,6-dihydrobenzo[f]tetrazolo[1,5-d][1,4]oxazepin-8-yl)-4-methylbenzamide] and `Cc1cc(F)c(C(=O)Nc2cccc3c2OC[C@@H]([C@H](C)O)n2nnnc2-3)cc1-n1cnc(C2CC2)c1` [Example 48, 5-(4-cyclopropyl-1H-imidazol-1-yl)-2-fluoro-N—((S)-5-((S)-1-hydroxyethyl)-5,6-dihydrobenzo[f]tetrazolo[1,5-d][1,4]oxazepin-8-yl)-4-methylbenzamide] are within 1.5-fold of each other in IC50: 4.5 nM for the first, 5.1 nM for the second.

`O=C(Nc1cccc2c1OC[C@@H](CF)n1nnnc1-2)c1cc(-n2cnc(C3CC3)c2)ccn1` [Example 31, (S)-4-(4-cyclopropyl-1H-imidazol-1-yl)-N-(5-(fluoromethyl)-5,6-dihydrobenzo[f]tetrazolo[1,5-d][1,4]oxazepin-8-yl)picolinamide] and `O=C(Nc1cccc2c1OCCn1nnnc1-2)c1cc(-n2cnc(C3CC3)c2)ccn1` [Example 50, 4-(4-cyclopropyl-1H-imidazol-1-yl)-N-(5,6-dihydrobenzo[f]tetrazolo[1,5-d][1,4]oxazepin-8-yl)picolinamide] are within 1.5-fold of each other in IC50: 5.7 nM for the first, 3.9 nM for the second.

`Cc1cc(F)c(C(=O)Nc2cccc3c2OC[C@H](CF)n2cnnc2-3)cc1-n1cnc(C2CC2)c1` [Example 32, (R)-5-(4-cyclopropyl-1H-imidazol-1-yl)-2-fluoro-N-(5-(fluoromethyl)-5,6-dihydrobenzo[f][1,2,4]triazolo[4,3-d][1,4]oxazepin-8-yl)-4-methylbenzamide] and `Cc1cc(F)c(C(=O)Nc2cccc3c2O[C@H](C)Cn2cnnc2-3)cc1-n1cnc(C2CC2)c1` [Example 34, (R)-5-(4-cyclopropyl-1H-imidazol-1-yl)-2-fluoro-4-methyl-N-(6-methyl-5,6-dihydrobenzo[f][1,2,4]triazolo[4,3-d][1,4]oxazepin-8-yl)benzamide] are within 1.5-fold of each other in IC50: 3.1 nM for the first, 4.1 nM for the second.

Compared with `Cc1cc(F)c(C(=O)Nc2cccc3c2O[C@@H](C)Cn2cnnc2-3)cc1-n1cnc(C2CC2)c1` [Example 35, (S)-5-(4-cyclopropyl-1H-imidazol-1-yl)-2-fluoro-4-methyl-N-(6-methyl-5,6-dihydrobenzo[f][1,2,4]triazolo[4,3-d][1,4]oxazepin-8-yl)benzamide], `Cc1cc(F)c(C(=O)Nc2cccc3c2O[C@@H](C)Cn2nnnc2-3)cc1-n1cnc(C2CC2)c1` [Example 42, (S)-5-(4-cyclopropyl-1H-imidazol-1-yl)-2-fluoro-4-methyl-N-(6-methyl-5,6-dihydrobenzo[f]tetrazolo[1,5-d][1,4]oxazepin-8-yl)benzamide] is 6.7-fold higher in IC50: 2.5 nM for the first, 16.8 nM for the second.

Compared with `CC1(C)COc2c(NC(=O)c3cc(-n4cnc(C5CC5)c4)c(N4CCOCC4)cn3)cccc2-c2nncn21` [Example 36, 4-(4-cyclopropyl-1H-imidazol-1-yl)-N-(5,5-dimethyl-5,6-dihydrobenzo[f][1,2,4]triazolo[4,3-d][1,4]oxazepin-8-yl)-5-morpholinopicolinamide], `CC1(C)COc2c(NC(=O)c3cc(-n4cnc(C5CC5)c4)c(N4CCOCC4)cn3)cccc2-c2nnnn21` [Example 37, 4-(4-cyclopropyl-1H-imidazol-1-yl)-N-(5,5-dimethyl-5,6-dihydrobenzo[f]tetrazolo[1,5-d][1,4]oxazepin-8-yl)-5-morpholinopicolinamide] is 11-fold lower in IC50: 5.6 nM for the first, 0.5 nM for the second.

First: C[C@H]1COc2c(NC(=O)c3cc(-n4cnc(C5CC5)c4)c(N4CCOCC4)cn3)cccc2-c2nncn21 [Example 38, (S)-4-(4-cyclopropyl-1H-imidazol-1-yl)-N-(5-methyl-5,6-dihydrobenzo[f][1,2,4]triazolo[4,3-d][1,4]oxazepin-8-yl)-5-morpholinopicolinamide]
Second: C[C@@H]1COc2c(NC(=O)c3cc(-n4cnc(C5CC5)c4)c(N4CCOCC4)cn3)cccc2-c2nncn21 [Example 39, (R)-4-(4-cyclopropyl-1H-imidazol-1-yl)-N-(5-methyl-5,6-dihydrobenzo[f][1,2,4]triazolo[4,3-d][1,4]oxazepin-8-yl)-5-morpholinopicolinamide]
The IC50 of the first is 9.2-fold lower: 0.6 nM for the first, 5.5 nM for the second.

Compared with `Cc1cc(F)c(C(=O)Nc2cccc3c2OCCn2nncc2-3)cc1-n1cnc(C2CC2)c1` [Example 40, 5-(4-cyclopropyl-1H-imidazol-1-yl)-N-(5,6-dihydrobenzo[f][1,2,3]triazolo[1,5-d][1,4]oxazepin-8-yl)-2-fluoro-4-methylbenzamide], `Cc1cc(F)c(C(=O)Nc2cccc3c2OCCn2cncc2-3)cc1-n1cnc(C2CC2)c1` [Example 41, 5-(4-cyclopropyl-1H-imidazol-1-yl)-N-(5,6-dihydrobenzo[f]imidazo[1,5-d][1,4]oxazepin-8-yl)-2-fluoro-4-methylbenzamide] is 11-fold higher in IC50: 0.5 nM for the first, 5.7 nM for the second. The first is the more potent here.

First: Cc1cc(F)c(C(=O)Nc2cccc3c2O[C@H](C)Cn2nnnc2-3)cc1-n1cnc(C2CC2)c1 [Example 43, (R)-5-(4-cyclopropyl-1H-imidazol-1-yl)-2-fluoro-4-methyl-N-(6-methyl-5,6-dihydrobenzo[f]tetrazolo[1,5-d][1,4]oxazepin-8-yl)benzamide]
Second: Cc1cc(F)c(C(=O)Nc2cccc3c2OC[C@@H]([C@@H](C)O)n2nnnc2-3)cc1-n1cnc(C2CC2)c1 [Example 53, 5-(4-cyclopropyl-1H-imidazol-1-yl)-2-fluoro-N—((S)-5-((R)-1-hydroxyethyl)-5,6-dihydrobenzo[f]tetrazolo[1,5-d][1,4]oxazepin-8-yl)-4-methylbenzamide]
The IC50 of the first is 7.1-fold lower: 0.9 nM for the first, 6.4 nM for the second.

Compared with `O=C(Nc1cccc2c1OCCn1cnnc1-2)c1cc(-n2cnc(C3CC3)c2)c(N2CCOCC2)cn1` [Example 44, 4-(4-cyclopropyl-1H-imidazol-1-yl)-N-(5,6-dihydrobenzo[f][1,2,4]triazolo[4,3-d][1,4]oxazepin-8-yl)-5-morpholinopicolinamide], `CN1CCN(c2cnc(C(=O)Nc3cccc4c3OCCn3nnnc3-4)cc2-n2cnc(C3CC3)c2)CC1` [Example 54, 4-(4-cyclopropyl-1H-imidazol-1-yl)-N-(5,6-dihydrobenzo[f]tetrazolo[1,5-d][1,4]oxazepin-8-yl)-5-(4-methylpiperazin-1-yl)picolinamide] is 2.6-fold lower in IC50: 15.6 nM for the first, 5.9 nM for the second.

First: Cc1cc(F)c(C(=O)Nc2cccc3c2OC2(CC2)Cn2cnnc2-3)cc1-n1cnc(C2CC2)c1 [Example 45, 5-(4-cyclopropyl-1H-imidazol-1-yl)-2-fluoro-4-methyl-N-(5H-spiro[benzo[f][1,2,4]triazolo[4,3-d][1,4]oxazepine-6,1′-cyclopropan]-8-yl)benzamide]
Second: Cc1cc(F)c(C(=O)Nc2cccc3c2OCCn2cnc(C)c2-3)cc1-n1cnc(C2CC2)c1 [Example 51, 5-(4-cyclopropyl-1H-imidazol-1-yl)-2-fluoro-4-methyl-N-(1-methyl-5,6-dihydrobenzo[f]imidazo[1,5-d][1,4]oxazepin-8-yl)benzamide]
The IC50 of the first is 58-fold lower: 5.3 nM for the first, 307 nM for the second.

Compared with `Cc1cc(F)c(C(=O)Nc2cccc3c2OC[C@H](C)n2cncc2-3)cc1-n1cnc(C2CC2)c1` [Example 46, (S)-5-(4-cyclopropyl-1H-imidazol-1-yl)-2-fluoro-4-methyl-N-(5-methyl-5,6-dihydrobenzo[f]imidazo[1,5-d][1,4]oxazepin-8-yl)benzamide], `Cc1cc(F)c(C(=O)Nc2cccc3c2OC[C@@H](C)n2cncc2-3)cc1-n1cnc(C2CC2)c1` [Example 47, (R)-5-(4-cyclopropyl-1H-imidazol-1-yl)-2-fluoro-4-methyl-N-(5-methyl-5,6-dihydrobenzo[f]imidazo[1,5-d][1,4]oxazepin-8-yl)benzamide] is 2.2-fold lower in IC50: 15.1 nM for the first, 6.8 nM for the second.

Compared with `C[C@@H]1Cn2cnnc2-c2cccc(NC(=O)c3cc(-n4cnc(C5CC5)c4)ccn3)c2O1` [Example 52, (R)-4-(4-cyclopropyl-1H-imidazol-1-yl)-N-(6-methyl-5,6-dihydrobenzo[f][1,2,4]triazolo[4,3-d][1,4]oxazepin-8-yl)picolinamide], `O=C(Nc1cccc2c1OCCn1cnnc1-2)c1cc(-n2cnc(C3CC3)c2)ccn1` [Example 56, 4-(4-cyclopropyl-1H-imidazol-1-yl)-N-(5,6-dihydrobenzo[f][1,2,4]triazolo[4,3-d][1,4]oxazepin-8-yl)picolinamide] is 6-fold higher in IC50: 5.9 nM for the first, 35.2 nM for the second.

Going from `C[C@@H]1CN(c2cnc(C(=O)Nc3cccc4c3OCCn3nnnc3-4)cc2-n2cnc(C3CC3)c2)CCO1` [Example 55, (R)-4-(4-cyclopropyl-1H-imidazol-1-yl)-N-(5,6-dihydrobenzo[f]tetrazolo[1,5-d][1,4]oxazepin-8-yl)-5-(2-methylmorpholino)picolinamide] to `O=C(Nc1cccc2c1OCCn1nnnc1-2)c1cc(-n2cnc(C3CC3)c2)c(N2CC[C@@H](O)C2)cn1` [Example 57, (R)-4-(4-cyclopropyl-1H-imidazol-1-yl)-N-(5,6-dihydrobenzo[f]tetrazolo[1,5-d][1,4]oxazepin-8-yl)-5-(3-hydroxypyrrolidin-1-yl)picolinamide], the IC50 rises from 2.1 nM to 4.7 nM (2.2-fold).
